Here are results for 20 compounds from article PMC10896388, “Hybrid Allosteric Modulators of M1 Muscarinic Receptors Enhance Acetylcholine Efficacy and Decrease Locomotor Activity and Turning Behaviors in Zebrafish” (Research Square, 2024).

Entries after “also recorded” stand apart in the source; their conditions may differ. Read-outs that look alike come from different tables or passages of the source.

Data set [1] has as its system wild-type (AB) zebrafish (Danio rerio). The data set can be described thus: Maximum tolerated concentration (MTC) determination in zebrafish larvae. It counts as in vivo. The settings on record: for MTC (maximum tolerated concentration): 5 dpf zebrafish larvae, after 24-hr exposure. The method, then:
Determination of maximum tolerated concentration (adapted from Berghmans)[52] was completed by placing 5 days post fertilization (dpf) wild-type zebrafish larvae in a 24 well plate at 6 fish per well, and one compound concentration per well. […] Death was determined by the absence of heartbeat. Additional endpoints were used to assess toxicity at non-lethal concentrations such as startle capacity (poke stimulus), abnormalities in swimming behavior (loss of dorsoventral balance), and gross morphological deformities (bent body). […] The MTC determination was used to select three doses of each compound (low, medium, high dose) to be used in behavioral assays.

Data set [2] addresses T1, human M1 muscarinic receptors (Homo sapiens, UniProt P11229).
T1 sequence (P11229 1-460): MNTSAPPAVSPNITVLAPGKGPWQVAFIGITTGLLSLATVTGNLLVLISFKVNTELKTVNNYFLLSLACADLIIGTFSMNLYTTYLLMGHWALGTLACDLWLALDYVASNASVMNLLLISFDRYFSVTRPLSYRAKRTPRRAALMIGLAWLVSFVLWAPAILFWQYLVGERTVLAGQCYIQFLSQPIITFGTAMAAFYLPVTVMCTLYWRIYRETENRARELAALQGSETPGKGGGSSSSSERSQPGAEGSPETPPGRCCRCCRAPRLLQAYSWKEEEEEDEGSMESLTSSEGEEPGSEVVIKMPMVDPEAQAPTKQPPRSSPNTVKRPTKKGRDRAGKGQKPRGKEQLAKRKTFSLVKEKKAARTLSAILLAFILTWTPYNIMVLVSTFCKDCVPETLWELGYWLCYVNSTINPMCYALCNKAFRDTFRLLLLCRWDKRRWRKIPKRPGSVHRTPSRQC
The data set can be described thus: [3H]-arachidonic acid release in CHO cells expressing M1 receptors, with and without ACh. It counts as cell-based. Also on record: expressed in transfected cells; host or cells: CHO cells (stably transfected CHO-hM1, from Mark Brann's laboratory, NIH). The conditions noted are these: for No ACh: agonist effect of the allosteric ligand by itself, fraction of the maximal response that could be elicited by ACh: at least 4 determinations. The method, then: CHO cells expressing human M1 muscarinic receptors were cultured at 37°C in a 5% CO2 atmosphere in F12 medium supplemented with 5% fetal bovine serum, 100 units/mL penicillin, and 100µg/mL streptomycin. These cells were obtained from Mark Brann’s laboratory when they were at NIH and have been in use by us and others for many years.[49]
Measurement of [^3H]AA release was performed as described in Stahl and Ellis.[24] Stably transfected CHO-hM1 cells were seeded on 24-well plates (Greiner Bio-One GmbH, Frickenhausen, Germany) at a density of 5.0 × 10^4 cells/well in 0.5 ml of F-12 medium. Cells were incubated until they attached (approximately 3 h), followed by the addition of [^3H]AA to a final concentration of 0.05 µCi of [^3H]AA per well. The cells were then grown for 16 to 20 h before the assay was performed. [^3H]AA release was measured in Eagle’s basal medium with 20 mM HEPES and 2 mg/ml fatty acid-free bovine serum albumin (EM-BSA). Cells were rinsed twice with EM-BSA, followed by the addition of EM-BSA media containing experimental agents and incubated for 1 h at 37°C. The assay was terminated by aspiration of the media, and the amount of [^3H]AA released was determined by liquid scintillation counting (Beckman-Coulter LS6500). […]
Tabulated [^3H]AA release data are represented as a fraction of maximal release elicited by ACh or as the fraction of release elicited by the relevant concentration of ACh alone, as indicated. Dose-response curves were normalized to the maximal response of ACh without allosteric ligand. Where indicated, response curves were analyzed using the empirical four-parameter equation: […] where X is the concentration of the ligand used, Y is the amount of response, C50 is the concentration of the ligand that produces 50% of the maximal effect, Top and Bottom are the top and bottom plateaus of the curve, and n is related to the Hill slope for the curve. Where indicated, families of response curves were analyzed according to an allosteric operational model:[50],[51]

In data set [3] the test system is wild-type (AB) zebrafish (Danio rerio). The data set can be described thus: animal or person. It counts as in vivo. The settings on record: for Therap. Index: zebrafish, apparently MTC / MEC. How it is done: The movement of larval zebrafish was monitored with the Noldus behavior recording system (Noldus Information Technology, Leesburg VA) and quantified using EthoVision® XT 15 software (Noldus Information Technology, Leesburg VA). Five-dpf zebrafish larvae were exposed to a range of nonlethal concentrations of compounds in a 24-well plate with appropriate controls. The plate was immediately placed in the incubator for a 30-minute exposure period. After 30 minutes, the plate was transferred to the Noldus system and swimming behavior was recorded in 100% light for 30 minutes to measure spontaneous swimming behavior. The light was switched off for 10 minutes (dark period) and then switched on for 10 minutes (light period), which was then repeated for two additional cycles. In total, the larvae were exposed to three cycles of alternating 10-minute dark and light periods (100% darkness-to-100% light). Each drug challenge was conducted on three separate plates with n = 6 larvae/dose/plate.
Absolute turn angle (TA) and angular velocity provided measures of the extent of turning behavior, while the intra-individual variance of turn angle quantified how consistently (low variance) or inconsistently (high variance) fish turned. A lowered intra-individual variance of turning reflected repeatedly performing the same turning behavior, a stereotypy.[53]
All data for exposure and the behavioral end points were analyzed by one-way ANOVA (factor: drug concentration) followed by a Dunnett’s multiple comparisons test for post hoc significance between drug concentration and control group. Statistically significant differences are noted as follows; *, p < 0.05; **, p < 0.01; ***, p < 0.001.

Setting [4] is: modulator 10 µM, CHO-hM1, mean ± s.e.m.
Where [5] appears, read: [3H]AA release, CHO-hM1, modulators at 10 µM (amiodarone 30 µM).

`CCCCc1oc2ccccc2c1C(=O)c1cc(I)c(OCCN(CC)CC)c(I)c1` [Amiodarone, reference compound]: in data set [1], the “MTC (maximum tolerated concentration)” value amounted to 10 µM. The “concentration that produced death” value in data set [1] (zebrafish larvae) is listed as 100 µM.
On to `O=C1C(=O)N(Cc2ccc(Br)cc2)c2ccccc21` [VU0119498, reference compound], for which the “0.1 µM ACh: response with modulator present divided by response to ACh alone” value in data set [2] (modulator 10 µM, 0.1 µM ACh, CHO-hM1, mean ± s.e.m.) was found to be 1.28 ± 0.12. In data set [2] (modulator 10 µM, 100 µM ACh, CHO-hM1, mean ± s.e.m.), the “100 µM ACh: response with modulator present divided by response to ACh alone” value is 1.03 ± 0.05. Further, the “No ACh: agonist effect of the allosteric ligand by itself, fraction of the maximal response that could be elicited by ACh” value in data set [2] (setting [4]) was 0.06 ± 0.01.
In the case of `CCN(CC)CCOc1c(Br)cc(CN2C(=O)C(=O)c3ccccc32)cc1Br.Cl` [Compound 8l, 1-(3,5-dibromo-4-(2-(diethylamino)ethoxy)benzyl)indoline-2,3-dione hydrochloride], in data set [2] (setting [5]), the “modulation of ACh response (in words)” value is on record as “only decreased ACh activity; also recorded: decreased ACh potency with little impact on ACh efficacy”. Further, in data set [1], the “MTC (maximum tolerated concentration)” value was determined as 10 µM. Moreover, the “Therap. Index” value in data set [3] worked out at 1.
Consider `CCCCc1oc2ccccc2c1C(=O)c1cc(I)c(O)c(I)c1` [Compound 3, reference compound], for which, in data set [2] (setting [5]), the “modulation of ACh response (in words)” value was “suppressed the maximal ACh response”. For the same compound, the “MTC (maximum tolerated concentration)” value in data set [1] is given as 3 µM.
`CCCCc1oc2ccccc2c1C(=O)c1cc(I)c(OCCNCC)c(I)c1.Cl` [Compound 1, (2-butylbenzofuran-3-yl)(4-(2-(ethylamino)ethoxy)-3,5-diiodophenyl)methanone hydrochloride]: in data set [2] (setting [5]), the “modulation of ACh response (in words)” value is on record as “suppressed the maximal ACh response”. In addition, in data set [1], the “MTC (maximum tolerated concentration)” value came to 3 µM. The “Therap. Index” value in data set [3] turned out to be 1.
On to `CCCCc1oc2ccccc2c1C(=O)c1ccc(O)cc1` [Compound 4, reference compound], for which the “modulation of ACh response (in words)” value in data set [2] (setting [5]) is reported as “suppressed the maximal ACh response”. Also, the “MTC (maximum tolerated concentration)” value in data set [1] is 0.3 µM.
Regarding `COc1ccc(CN2C(=O)C(=O)c3ccccc32)cc1F` [Compound 8h, 1-(3-fluoro-4-methoxybenzyl)indoline-2,3-dione], the “MTC (maximum tolerated concentration)” value in data set [1] came out at 30 µM. Besides, in data set [3], the “Therap. Index” value was found to be 10.
Take `COc1ccc(CN2C(=O)C(=O)c3ccccc32)cc1Br` [Compound 8d, 1-(3-bromo-4-methoxybenzyl)indoline-2,3-dione]: in data set [1], the “MTC (maximum tolerated concentration)” value worked out at 100 µM. For the same compound, the “Therap. Index” value in data set [3] turned out to be 100.
Take `COc1ccc(CN2C(=O)C(=O)c3ccccc32)cc1I` [Compound 8b, 1-(3-iodo-4-methoxybenzyl)indoline-2,3-dione]: in data set [1], the “MTC (maximum tolerated concentration)” value is 10 µM. Further, the “Therap. Index” value in data set [3] stood at 10.
As to `COc1c(Cl)cc(CN2C(=O)C(=O)c3ccccc32)cc1Cl` [Compound 8e, 1-(3,5-dichloro-4-methoxybenzyl)indoline-2,3-dione], the “MTC (maximum tolerated concentration)” value in data set [1] was 100 µM. The “Therap. Index” value in data set [3] is 100.
With `CCCCc1oc2ccccc2c1C(=O)c1cc(I)c(OCCN(CC)C(C)=O)c(I)c1` [Compound 5a, N-(2-(4-(2-butylbenzofuran-3-carbonyl)-2,6-diiodophenoxy)ethyl)-N-ethylacetamide], the “intrinsic agonist activity (in words)” value in data set [2] ([3H]AA release in the absence of ACh, 10 µM) was “significant intrinsic agonist activity”. Besides, the “increase in mAChR activity compared to treatment with ACh alone” value in data set [2] ([3H]AA release, CHO-hM1, predominantly at higher doses of ACh (Table 2, not available)) is reported as 70%. In data set [1], the “MTC (maximum tolerated concentration)” value is reported as 10 µM.
On to `CCCCc1oc2ccccc2c1C(=O)c1cc(I)c(OC)c(I)c1` [Compound 6b, (2-butylbenzofuran-3-yl)(3,5-diiodo-4-methoxyphenyl)methanone], for which, in data set [2] (setting [5]), the “modulation of ACh response (in words)” value was “increased ACh activity”. For the same compound, the “MTC (maximum tolerated concentration)” value in data set [1] was found to be 30 µM.
Consider `COc1ccc(CN2C(=O)C(=O)c3ccccc32)cc1Cl` [Compound 8f, 1-(3-chloro-4-methoxybenzyl)indoline-2,3-dione], for which the “MTC (maximum tolerated concentration)” value in data set [1] was 10 µM. For the same compound, in data set [3], the “Therap. Index” value is 3.3.
As to `COc1c(F)cc(CN2C(=O)C(=O)c3ccccc32)cc1F` [Compound 8g, 1-(3,5-difluoro-4-methoxybenzyl)indoline-2,3-dione], the “MTC (maximum tolerated concentration)” value in data set [1] is 30 µM. Also, the “Therap. Index” value in data set [3] was 30.
For the compound `COc1ccc(Cn2cc(C(=O)O)c(=O)c3ccccc32)cc1` [BQCA, reference compound], the “modulation of ACh response (in words)” value in data set [2] is “enhanced potency without appreciable effect on maximal response”. Further, the “No ACh: agonist effect of the allosteric ligand by itself, fraction of the maximal response that could be elicited by ACh” value in data set [2] (setting [4]) came to 0.02 ± 0.00. For the same compound, the “effect on locomotor activity and turning behaviors (in words)” value in data set [3] (AB zebrafish, 30-minute spontaneous swimming period) is reported as “decreased overall locomotor activity”.
As for `CCCCc1oc2ccccc2c1C(=O)c1cc(I)c(OCC[N+](CC)(CC)CC)c(I)c1` [Compound 2, N-ethyl amiodarone, reference compound], in data set [2] (setting [5]), the “modulation of ACh response (in words)” value is “NAM of mAChR potency and efficacy”. For the same compound, in data set [1], the “MTC (maximum tolerated concentration)” value came to 1 µM.
For `COc1cc(CN2C(=O)C(=O)c3ccccc32)cc(OC)c1OC` [Compound 8k, 1-(3,4,5-trimethoxybenzyl)indoline-2,3-dione], the “MTC (maximum tolerated concentration)” value in data set [1] is given as 30 µM. The “Therap. Index” value in data set [3] is 30.
In the case of `O=C1C(=O)N(Cc2cc(F)c(F)c(F)c2)c2ccccc21` [Compound 8i, 1-(3,4,5-trifluorobenzyl)indoline-2,3-dione], the “MTC (maximum tolerated concentration)” value in data set [1] was determined as 10 µM. Besides, the “Therap. Index” value in data set [3] amounted to 10.
On to `O=C1C(=O)N(Cc2ccc(O)cc2)c2ccccc21` [Compound 10, 1-(4-hydroxybenzyl)indoline-2,3-dione], for which the “MTC (maximum tolerated concentration)” value in data set [1] was 10 µM. Moreover, the “Therap. Index” value in data set [3] stood at 3.3.
As to `CCCCc1oc2ccccc2c1C(=O)c1ccc(OC)cc1` [Compound 6a, (2-butylbenzofuran-3-yl)(4-methoxyphenyl)methanone], the “MTC (maximum tolerated concentration)” value in data set [1] is recorded as 3 µM.
